In patent US8492520B2, “Binding epitopes for G250 antibody” (Wilex AG, priority 2007, dated 2013):

Tested on: G250 antibody
Test: conformational epitope mapping of carbonic anhydrase IX peptide sections on scaffolds, binding to G250 antibody
Conditions: core sequences shared by the best-binding peptides
Experimental: Short peptide sections of CA-IX which bind to the G250 antibody were determined by means of conformational epitope mapping of carbonic anhydrase using the scaffolds shown in FIG. 2. The following 15 sequences were identified as peptide sections having the highest binding capacity: […]

recognition by G250 antibody (rank of epitope sequence): dominantly recognized
Sequence: LSTAFARV [SEQ ID NO:1]
